Results: the supplement of paper PMC7017272
± gives the standard deviation of the averaged measurements.

How the values were obtained:
Conditions in all cases: treatment time: 3 days
UT-SCC-106A [1] = experiment: maximal % inhibition of viability relative to DMSO; higher = stronger effect
Method in brief: (§1)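 Viability was read with CellTiter-Glo 2.0 luminescence and scaled against vehicle (0.1% DMSO) and cell-killing control wells. The assay used HPV-negative HNSCC cell lines at 500 cells/well in 384-well plates, grown on plastic, on Matrigel or Myogel coatings (500 µg/mL), or embedded in Matrigel or Myogel plus rat collagen I, and treated for 3 days at five 10-fold concentrations. IC50, maximal inhibition and drug sensitivity score were derived from percent-inhibition dose–response curves fitted in the FIMM pipeline.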

UT-SCC-28 [2] = experiment: as above
Method in brief: as §1

UT-SCC-14 [3] = experiment: as above
Method in brief: as §1

UT-SCC-24A [4] = experiment: drug sensitivity score (DSS); higher = more sensitive
Experimental: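 HNSCC cell lines (500 cells/well, 384-well) were cultured on plastic, on top of (2D) or embedded (3D) in Matrigel or human leiomyoma matrix Myogel (500 ug/mL; Myogel 3D mixed with rat collagen I). Cells were treated for 3 days with 5 ten-fold concentrations of each drug, and viability was read by CellTiter-Glo. Suffixes _1/_2/_3 on drug names are replicates.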

UT-SCC-24A [5] = experiment: maximal % inhibition of viability relative to DMSO; higher = stronger effect
Experimental: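 HNSCC cell lines (500 cells/well, 384-well) were cultured on plastic, on top of (2D) or embedded (3D) in Matrigel or human leiomyoma matrix Myogel (500 ug/mL; Myogel 3D mixed with rat collagen I). Cells were treated for 3 days with 5 ten-fold concentrations of each drug, and viability was read by CellTiter-Glo. Viability was normalised to DMSO (0% inhibition) and 100 uM benzethonium chloride (100% inhibition) controls and fitted with the FIMM DSRT pipeline to give IC50 (nM), maximal % inhibition and the drug sensitivity score (DSS). Suffixes _1/_2/_3 on drug names are replicates.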

UT-SCC-73 = experiment: drug sensitivity score (DSS); higher = more sensitive; extreme values may be limits of the assay
Method in brief: as §1

UT-SCC-44 = experiment: as above
Method in brief: as §1

UT-SCC-106A [6] = experiment: as above
Method in brief: as §1

UT-SCC-42A = experiment: as above
Method in brief: as §1

UT-SCC-28 [7] = experiment: as above
Method in brief: as §1

UT-SCC-81 = experiment: as above
Method in brief: as §1

UT-SCC-8 = experiment: as above
Method in brief: as §1

UT-SCC-24B = experiment: as above
Method in brief: as §1

UT-SCC-14 [8] = experiment: as above
Method in brief: as §1

UT-SCC-40 = experiment: as above
Method in brief: as §1

UT-SCC-42B = experiment: as above
Method in brief: as §1

[9] = culture condition: embedded in Matrigel
[10] = culture condition: embedded in Myogel + collagen I
[11] = culture condition: on top of Matrigel
[12] = culture condition: on top of Myogel
[13] = culture condition: plastic 2D (no matrix)

## CO[C@H]1C[C@@H]2CC[C@@H](C)[C@@](O)(O2)C(=O)C(=O)N2CCCC[C@H]2C(=O)O[C@H]([C@H](C)C[C@@H]2CC[C@@H](O)[C@H](OC)C2)CC(=O)[C@H](C)/C=C(\C)[C@@H](O)[C@@H](OC)C(=O)[C@H](C)C[C@H](C)/C=C/C=C/C=C/1C [Sirolimus]
UT-SCC-106A [1]; [9]
  maximal % inhibition of viability: 53.1 ± 13%
UT-SCC-106A [1]; [10]
  maximal % inhibition of viability: 35.2 ± 3%
UT-SCC-106A [1]; [11]
  maximal % inhibition of viability: 52.9 ± 3.1%
UT-SCC-106A [1]; [12]
  maximal % inhibition of viability: 41.1 ± 1.3%
UT-SCC-106A [1]; [13]
  maximal % inhibition of viability: 57.3 ± 2.8%
UT-SCC-28 [2]; [9]
  maximal % inhibition of viability: 35 ± 13%
UT-SCC-28 [2]; [10]
  maximal % inhibition of viability: 57.3 ± 1.4%
UT-SCC-28 [2]; [11]
  maximal % inhibition of viability: 43.7 ± 4.2%
UT-SCC-28 [2]; [13]
  maximal % inhibition of viability: 34.8 ± 4.6%
UT-SCC-14 [3]; [9]
  maximal % inhibition of viability: 73.1 ± 6.3%
UT-SCC-14 [3]; [10]
  maximal % inhibition of viability: 60.2 ± 7.8%
UT-SCC-14 [3]; [11]
  maximal % inhibition of viability: 70.8 ± 8.7%
UT-SCC-14 [3]; [12]
  maximal % inhibition of viability: 66.2 ± 9%
UT-SCC-14 [3]; [13]
  maximal % inhibition of viability: 64.4 ± 6.4%
UT-SCC-24A [4]; [9]
  drug sensitivity score: 9 ± 4.9 DSS
UT-SCC-24A [4]; [10]
  drug sensitivity score: 16.4 ± 1.2 DSS
UT-SCC-24A [4]; [11]
  drug sensitivity score: 12.7 ± 3.7 DSS
UT-SCC-24A [4]; [12]
  drug sensitivity score: 13.7 ± 1.2 DSS
UT-SCC-24A [4]; [13]
  drug sensitivity score: 12.9 ± 2.5 DSS
UT-SCC-24A [5]; [9]
  maximal % inhibition of viability: 69 ± 4.9%
UT-SCC-24A [5]; [10]
  maximal % inhibition of viability: 77.4 ± 8.1%
UT-SCC-24A [5]; [11]
  maximal % inhibition of viability: 71.57 ± 0.55%
UT-SCC-24A [5]; [12]
  maximal % inhibition of viability: 65.5 ± 2.4%
UT-SCC-24A [5]; [13]
  maximal % inhibition of viability: 67.9 ± 2.4%
UT-SCC-73; [9]
  drug sensitivity score: 12.4 ± 4.3 DSS
UT-SCC-73; [10]
  drug sensitivity score: 8.07 ± 1.6 DSS
UT-SCC-73; [11]
  drug sensitivity score: 11.9 ± 5.2 DSS
UT-SCC-73; [12]
  drug sensitivity score: 10.1 ± 0.81 DSS
UT-SCC-73; [13]
  drug sensitivity score: 7.43 ± 0.31 DSS
UT-SCC-44; [9]
  drug sensitivity score: 6.6 ± 5.8 DSS
UT-SCC-44; [10]
  drug sensitivity score: 13.9 ± 2.7 DSS
UT-SCC-44; [11]
  drug sensitivity score: 13.1 ± 0.99 DSS
UT-SCC-44; [12]
  drug sensitivity score: 14.2 ± 3.2 DSS
UT-SCC-44; [13]
  drug sensitivity score: 15 ± 1.4 DSS
UT-SCC-106A [6]; [9]
  drug sensitivity score: 4.7 ± 4.3 DSS
UT-SCC-106A [6]; [10]
  drug sensitivity score: 3.73 ± 3.3 DSS
UT-SCC-106A [6]; [11]
  drug sensitivity score: 8.67 ± 3.8 DSS
UT-SCC-106A [6]; [12]
  drug sensitivity score: 7.03 ± 3.8 DSS
UT-SCC-106A [6]; [13]
  drug sensitivity score: 10 ± 3.3 DSS
UT-SCC-42A; [9]
  drug sensitivity score: 10.6 ± 4.6 DSS
UT-SCC-42A; [10]
  drug sensitivity score: 9.5 ± 0.92 DSS
UT-SCC-42A; [11]
  drug sensitivity score: 12.9 ± 1.6 DSS
UT-SCC-42A; [12]
  drug sensitivity score: 12.3 ± 1.6 DSS
UT-SCC-42A; [13]
  drug sensitivity score: 11.2 ± 0.82 DSS
UT-SCC-28 [7]; [9]
  drug sensitivity score: 7.27 ± 5.1 DSS
UT-SCC-28 [7]; [10]
  drug sensitivity score: 7.53 ± 7 DSS
UT-SCC-28 [7]; [11]
  drug sensitivity score: 9.87 ± 0.93 DSS
UT-SCC-28 [7]; [13]
  drug sensitivity score: 6.97 ± 1.6 DSS
UT-SCC-81; [9]
  drug sensitivity score: 14.2 ± 4.6 DSS
UT-SCC-81; [10]
  drug sensitivity score: 14.9 ± 2.7 DSS
UT-SCC-81; [11]
  drug sensitivity score: 17.1 ± 1.8 DSS
UT-SCC-81; [12]
  drug sensitivity score: 16.6 ± 2.1 DSS
UT-SCC-81; [13]
  drug sensitivity score: 17.8 ± 1.2 DSS
UT-SCC-8; [9]
  drug sensitivity score: 12.2 ± 11 DSS
UT-SCC-8; [10]
  drug sensitivity score: 3.87 ± 6.7 DSS
UT-SCC-8; [11]
  drug sensitivity score: 11.5 ± 10 DSS
UT-SCC-8; [12]
  drug sensitivity score: 11.3 ± 9.8 DSS
UT-SCC-8; [13]
  drug sensitivity score: 12.4 ± 11 DSS
UT-SCC-24B; [9]
  drug sensitivity score: 22.9 ± 0.36 DSS
UT-SCC-24B; [10]
  drug sensitivity score: 19.5 ± 4 DSS
UT-SCC-24B; [11]
  drug sensitivity score: 18.9 ± 4.8 DSS
UT-SCC-24B; [12]
  drug sensitivity score: 17.2 ± 3.4 DSS
UT-SCC-24B; [13]
  drug sensitivity score: 16.8 ± 4.1 DSS
UT-SCC-14 [8]; [9]
  drug sensitivity score: 19.3 ± 2.1 DSS
UT-SCC-14 [8]; [10]
  drug sensitivity score: 15.4 ± 2.7 DSS
UT-SCC-14 [8]; [11]
  drug sensitivity score: 15.6 ± 3.3 DSS
UT-SCC-14 [8]; [12]
  drug sensitivity score: 15.4 ± 3.1 DSS
UT-SCC-14 [8]; [13]
  drug sensitivity score: 15.1 ± 3.8 DSS
UT-SCC-40; [9]
  drug sensitivity score: 5.4 ± 4.9 DSS
UT-SCC-40; [10]
  drug sensitivity score: 4.83 ± 4.2 DSS
UT-SCC-40; [11]
  drug sensitivity score: 3.2 ± 5.5 DSS
UT-SCC-40; [12]
  drug sensitivity score: 4.67 ± 4.1 DSS
UT-SCC-40; [13]
  drug sensitivity score: 0 DSS
UT-SCC-42B; [9]
  drug sensitivity score: 3.47 ± 6 DSS
UT-SCC-42B; [11]
  drug sensitivity score: 3.07 ± 5.3 DSS
UT-SCC-42B; [12]
  drug sensitivity score: 0 DSS
UT-SCC-42B; [13]
  drug sensitivity score: 3.8 ± 3.4 DSS
